The values that follow come from patent US8399419B2, “Antibacterial aminoglycoside analogs” (Achaogen, Inc., priority 2008, dated 2013).

The structures appear in SMILES notation. Converted amounts (≈) assume the structure as drawn.

For one experiment, the system named is E. coli ATCC 25922. Put plainly: MIC assay (CLSI broth microdilution), AECO001. In kind it is cell-based. To be noted: Escherichia coli; AECO001 is ATCC25922 (E. coli); Mueller Hinton Broth, 35 C, 20 hours. The protocol:
(§1) Minimum inhibitory concentrations (MIC) were determined by reference Clinical and Laboratory Standards Institute (CLSI) broth microdilution methods per M7-A7 [2006]. Quality control ranges utilizing E. coli ATCC 25922, P. aeruginosa ATCC 27853 and S. aureus ATCC 29213, and interpretive criteria for comparator agents were as published in CLSI M100-S17 [2007]. Briefly, serial two-fold dilutions of the test compounds were prepared at 2× concentration in Mueller Hinton Broth. The compound dilutions were mixed in 96-well assay plates in a 1:1 ratio with bacterial inoculum. The inoculum was prepared by suspension of a colony from an agar plate that was prepared the previous day. Bacteria were suspended in sterile saline and added to each assay plate to obtain a final concentration of 5×10^5 CFU/mL. The plates were incubated at 35 C for 20 hours in ambient air.
For orientation: Broth dilution looks for growth in wells or tubes with falling amounts of substance.

The next experiment concerns P. aeruginosa ATCC 27853. Kind of experiment: MIC assay (CLSI broth microdilution), APAE001. In kind it is cell-based. To be noted: Pseudomonas aeruginosa; APAE001 is ATCC27853 (P. aeruginosa); Mueller Hinton Broth, 35 C, 20 hours. The protocol:
as §1

As a reminder, the MIC is the smallest concentration in the dilution series that meets the test's criterion for growth inhibition. A lower MIC goes with a more susceptible organism. On to `NC[C@@H]1CC[C@@H](N)[C@@H](O[C@H]2[C@H](O[C@@H]3O[C@H](CO)[C@@H](O[C@H]4O[C@@H](CN)CC[C@H]4N)[C@H]3O)[C@@H](O)[C@H](NC(=O)[C@@H](O)[C@H](F)CN)C[C@@H]2N)O1` [Example 24/Compound 8, 3′,4′,3′″,4′″-tetra-deoxy-1-(4-amino-3(R)-fluoro-2(R)-hydroxy-butyryl)-neomycin], for which the MIC against E. coli ATCC 25922 and against P. aeruginosa ATCC 27853 was no more than 1 µg/mL in each case.
As for `NC[C@@H]1CC[C@@H](N)[C@@H](O[C@H]2[C@H](O[C@@H]3O[C@H](CO)[C@@H](O[C@H]4O[C@@H](CN)CC[C@H]4N)[C@H]3O)[C@@H](O)[C@H](NC(=O)[C@H](O)[C@@H](F)CN)C[C@@H]2N)O1` [Example 25/Compound 8, 3′,4′,3′″,4′″-tetra-deoxy-1-(4-amino-3(S)-fluoro-2(S)-hydroxy-butyryl)-neomycin], the MIC in the experiment on E. coli ATCC 25922 and with P. aeruginosa ATCC 27853 was no more than 1 µg/mL in each case.
For the compound `NC[C@@H]1CC[C@@H](N)[C@@H](O[C@H]2[C@H](O[C@@H]3O[C@H](CO)[C@@H](O[C@H]4O[C@@H](CN)CC[C@H]4N)[C@H]3O)[C@@H](O)[C@H](NC(=O)[C@@H](O)C(F)(F)CN)C[C@@H]2N)O1` [Example 26/Compound 6, 3′,4′,3′″,4′″-tetra-deoxy-1-(4-amino-3,3-bisfluoro-2(R)-hydroxy-butyryl)-neomycin], the MIC against E. coli ATCC 25922 and against P. aeruginosa ATCC 27853 was no more than 1 µg/mL throughout.
Consider `NC[C@@H]1CC[C@@H](N)[C@@H](O[C@H]2[C@H](O[C@@H]3O[C@H](CO)[C@@H](O[C@H]4O[C@@H](CN)CC[C@H]4N)[C@H]3O)[C@@H](O)[C@H](NC(=O)[C@H](O)C(F)(F)CN)C[C@@H]2N)O1` [Example 27/Compound 6, 3′,4′,3′″,4′″-tetra-deoxy-1-(4-amino-3,3-bisfluoro-2(S)-hydroxy-butyryl)-neomycin], for which the MIC with E. coli ATCC 25922 and in the experiment with P. aeruginosa ATCC 27853 was 1 to 16 µg/mL (≈ 1.45 to 23.3 µM) in each case.
`NC[C@@H]1CC[C@@H](N)[C@@H](O[C@H]2[C@H](O[C@@H]3O[C@H](CO)[C@@H](O[C@H]4O[C@@H](CN)CC[C@H]4N)[C@H]3O)[C@@H](O)[C@H](NC(=O)[C@@H](O)[C@@H](O)CN)C[C@@H]2N)O1` [Example 28/Compound 6, 3′,4′,3′″,4′″-tetra-deoxy-1-(4-amino-3,2-(S,S)-bis-hydroxy-butyryl)-neomycin]: the minimum inhibitory concentration (MIC) against E. coli ATCC 25922 and with P. aeruginosa ATCC 27853 was no more than 1 µg/mL each time.
Take `NC[C@@H]1CC[C@@H](N)[C@@H](O[C@H]2[C@H](O[C@@H]3O[C@H](CO)[C@@H](O[C@H]4O[C@@H](CN)CC[C@H]4N)[C@H]3O)[C@@H](O)[C@H](NC(=O)[C@H](O)[C@H](O)CN)C[C@@H]2N)O1` [Example 29/Compound 6, 3′,4′,3′″,4′″-tetra-deoxy-1-(4-amino-3,2-(R,R)-bis-hydroxy-butyryl)-neomycin]: the results for the MIC against E. coli ATCC 25922 and with P. aeruginosa ATCC 27853 were 1 to 16 µg/mL (≈ 1.5 to 24 µM) and no more than 1 µg/mL, respectively.
